Laboratory results reported in ChEMBL document CHEMBL3885881, “DrugMatrix”.

Species on record: Rattus norvegicus
Test: DrugMatrix - Regimen: Daily Repeat
Format: toxicity, organism-based, Sprague-Dawley
Design: regimen Daily Repeat, gender Male, age 6-8 weeks
Conditions: in vivo, po, route oral GAVAGE, vehicle 100 % WATER; for ABSOLUTE BASOPHIL / ABSOLUTE EOSINOPHIL / ABSOLUTE LYMPHOCYTE / ABSOLUTE MONOCYTE / ABSOLUTE SEGMENTED NEUTROPHIL / BASOPHIL / EOSINOPHIL / ERYTHROCYTE COUNT / HEMATOCRIT / HEMOGLOBIN / LEUKOCYTE COUNT / LYMPHOCYTE / MEAN CORPUSCULAR HEMOGLOBIN / MEAN CORPUSCULAR HEMOGLOBIN CONCENTRATION / MEAN CORPUSCULAR VOLUME / MONOCYTE / NEUTROPHIL / NUCLEATED RED BLOOD CELLS / PLATELET COUNT: tissue Blood; for ALANINE AMINOTRANSFERASE / ALBUMIN / ALKALINE PHOSPHATASE / ASPARTATE AMINOTRANSFERASE / BLOOD UREA NITROGEN / CARBON DIOXIDE / CHLORIDE / CHOLESTEROL / CREATINE PHOSPHOKINASE / CREATININE / GLUCOSE / LACTATE DEHYDROGENASE / LIPASE / PHOSPHORUS / POTASSIUM / SODIUM / TOTAL BILIRUBIN / TOTAL PROTEIN / URIC ACID: tissue Plasma
[1] = 0 mg/kg, 72 h, dose level Control, time 3 day
[2] = 0 mg/kg, 120 h, dose level Control, time 5 day
[3] = 300 mg/kg, 72 h, dose level Low, time 3 day

In the case of `CC(Cl)(Cl)Cl` [TRICHLOROETHANE], the “ABSOLUTE BASOPHIL” value [1] is reported as 0 CELLS/uL, the “ABSOLUTE EOSINOPHIL” value [1] is reported as 86.33 CELLS/uL and the “ABSOLUTE LYMPHOCYTE” value [1] is reported as 12090.17 CELLS/uL. For the same molecule, the “ABSOLUTE MONOCYTE” value [1] was 166.67 CELLS/uL, the “ABSOLUTE SEGMENTED NEUTROPHIL” value [1] was 1090.17 CELLS/uL and the BASOPHIL [1] was 0%. For the same molecule, the EOSINOPHIL [1] was 0.67%, the “ERYTHROCYTE COUNT” value [1] was 5.57 x10E6/uL and the HEMATOCRIT [1] was 35.33%. The HEMOGLOBIN [1] was 13.83 G/DL, the “LEUKOCYTE COUNT” value [1] was 13.43 x10E3/uL and the LYMPHOCYTE [1] was 89.83%. The “MEAN CORPUSCULAR HEMOGLOBIN” value [1] was 24.88 pg, the “MEAN CORPUSCULAR HEMOGLOBIN CONCENTRATION” value [1] was 39.15 G/DL and the “MEAN CORPUSCULAR VOLUME” value [1] was 63.52 fL. The MONOCYTE [1] was 1.17%, the NEUTROPHIL [1] was 8.33% and the “NUCLEATED RED BLOOD CELLS” value [1] was 0 /100WBC. For the same molecule, the “PLATELET COUNT” value [1] was 1181.33 x10E3/uL, the “ALANINE AMINOTRANSFERASE” value [1] was 48.33 u/L and the ALBUMIN [1] was 4.1 G/DL. For the same molecule, the “ALKALINE PHOSPHATASE” value [1] was 395 u/L, the “ASPARTATE AMINOTRANSFERASE” value [1] was 81.83 u/L and the “BLOOD UREA NITROGEN” value [1] was 15.83 mg/dL. The “CARBON DIOXIDE” value [1] was 24.17 mmol/L, the CHLORIDE [1] was 103.83 MEQ/L and the CHOLESTEROL [1] was 63.67 mg/dL. The “CREATINE PHOSPHOKINASE” value [1] was 372.83 u/L, the CREATININE [1] was 0.18 mg/dL and the GLUCOSE [1] was 173.83 mg/dL. For the same molecule, the “LACTATE DEHYDROGENASE” value [1] was 188.33 u/L, the LIPASE [1] was 9.5 u/L and the PHOSPHORUS [1] was 11.95 mg/dL. The POTASSIUM [1] was 5.99 MEQ/L, the SODIUM [1] was 144.43 MEQ/L and the “TOTAL BILIRUBIN” value [1] was 0.15 mg/dL. The “TOTAL PROTEIN” value [1] was 5.95 G/DL, the “URIC ACID” value [1] was 1.82 mg/dL and the “ABSOLUTE BASOPHIL” value [2] was 0 CELLS/uL. The “ABSOLUTE EOSINOPHIL” value [2] was 26.67 CELLS/uL, the “ABSOLUTE LYMPHOCYTE” value [2] was 7583.83 CELLS/uL and the “ABSOLUTE MONOCYTE” value [2] was 131.33 CELLS/uL. For the same molecule, the “ABSOLUTE SEGMENTED NEUTROPHIL” value [2] was 674.83 CELLS/uL, the BASOPHIL [2] was 0% and the EOSINOPHIL [2] was 0.33%. The “ERYTHROCYTE COUNT” value [2] was 5.78 x10E6/uL, the HEMATOCRIT [2] was 36.48% and the HEMOGLOBIN [2] was 14.03 G/DL. For the same molecule, the “LEUKOCYTE COUNT” value [2] was 8.42 x10E3/uL, the LYMPHOCYTE [2] was 89.83% and the “MEAN CORPUSCULAR HEMOGLOBIN” value [2] was 24.3 pg. For the same molecule, the “MEAN CORPUSCULAR HEMOGLOBIN CONCENTRATION” value [2] was 38.52 G/DL, the “MEAN CORPUSCULAR VOLUME” value [2] was 63.15 fL and the MONOCYTE [2] was 1.67%. The NEUTROPHIL [2] was 8.17%, the “NUCLEATED RED BLOOD CELLS” value [2] was 0 /100WBC and the “PLATELET COUNT” value [2] was 1186.67 x10E3/uL. For the same molecule, the “ALANINE AMINOTRANSFERASE” value [2] was 50.17 u/L, the ALBUMIN [2] was 4.07 G/DL and the “ALKALINE PHOSPHATASE” value [2] was 367.5 u/L. The “ASPARTATE AMINOTRANSFERASE” value [2] was 81.67 u/L, the “BLOOD UREA NITROGEN” value [2] was 16.17 mg/dL and the “CARBON DIOXIDE” value [2] was 32.33 mmol/L. The CHLORIDE [2] was 101.5 MEQ/L, the CHOLESTEROL [2] was 65.33 mg/dL and the “CREATINE PHOSPHOKINASE” value [2] was 255.33 u/L. For the same molecule, the CREATININE [2] was 0.17 mg/dL, the GLUCOSE [2] was 139.33 mg/dL and the “LACTATE DEHYDROGENASE” value [2] was 95 u/L. The LIPASE [2] was 10.5 u/L, the PHOSPHORUS [2] was 10.38 mg/dL and the POTASSIUM [2] was 6.11 MEQ/L. For the same molecule, the SODIUM [2] was 145.55 MEQ/L, the “TOTAL BILIRUBIN” value [2] was 0.17 mg/dL and the “TOTAL PROTEIN” value [2] was 5.98 G/DL. For the same molecule, the “URIC ACID” value [2] was 0.93 mg/dL, the “ABSOLUTE BASOPHIL” value [3] was 0 CELLS/uL and the “ABSOLUTE EOSINOPHIL” value [3] was 37 CELLS/uL. The “ABSOLUTE LYMPHOCYTE” value [3] was 13276 CELLS/uL, the “ABSOLUTE MONOCYTE” value [3] was 236.33 CELLS/uL and the “ABSOLUTE SEGMENTED NEUTROPHIL” value [3] was 1084 CELLS/uL. The BASOPHIL [3] was 0%, the EOSINOPHIL [3] was 0.33% and the “ERYTHROCYTE COUNT” value [3] was 5.75 x10E6/uL. The HEMATOCRIT [3] was 37.23%, the HEMOGLOBIN [3] was 14.1 G/DL and the “LEUKOCYTE COUNT” value [3] was 14.63 x10E3/uL. The LYMPHOCYTE [3] was 90.67%, the “MEAN CORPUSCULAR HEMOGLOBIN” value [3] was 24.53 pg and the “MEAN CORPUSCULAR HEMOGLOBIN CONCENTRATION” value [3] was 37.87 G/DL. For the same molecule, the “MEAN CORPUSCULAR VOLUME” value [3] was 64.8 fL, the MONOCYTE [3] was 1.67% and the NEUTROPHIL [3] was 7.33%. The “NUCLEATED RED BLOOD CELLS” value [3] was 0 /100WBC, the “PLATELET COUNT” value [3] was 1274 x10E3/uL and the “ALANINE AMINOTRANSFERASE” value [3] was 52 u/L. The ALBUMIN [3] was 4 G/DL, the “ALKALINE PHOSPHATASE” value [3] was 352.67 u/L and the “ASPARTATE AMINOTRANSFERASE” value [3] was 88.67 u/L. For the same molecule, the “BLOOD UREA NITROGEN” value [3] was 16 mg/dL, the “CARBON DIOXIDE” value [3] was 24.67 mmol/L and the CHLORIDE [3] was 102.33 MEQ/L. For the same molecule, the CHOLESTEROL [3] was 72 mg/dL, the “CREATINE PHOSPHOKINASE” value [3] was 1076 u/L and the CREATININE [3] was 0.13 mg/dL. For the same molecule, the GLUCOSE [3] was 161 mg/dL, the “LACTATE DEHYDROGENASE” value [3] was 188.67 u/L and the LIPASE [3] was 9 u/L. The PHOSPHORUS [3] was 13.77 mg/dL, the POTASSIUM [3] was 6.88 MEQ/L and the SODIUM [3] was 144.3 MEQ/L. For the same molecule, the “TOTAL BILIRUBIN” value [3] was 0.2 mg/dL, the “TOTAL PROTEIN” value [3] was 5.83 G/DL and the “URIC ACID” value [3] was 1.93 mg/dL.
